Measured values taken from US9107909B2, “Materials and methods to enhance hematopoietic stem cells engraftment procedures” (priority 2008, dated 2015).

Experiments:
UCB CD34+ cells = test: Migration of human UCB CD34+ cells to rhSDF-1; type: cell-based; details: pulse exposure
Experimental: Freshly isolated UCB CD34^+ cells were pulsed with dmPGE2 or vehicle for 2 hours, washed and resuspended in media with 10% HI-FCS and cultured at 37° C. for 16 hours. After incubation, cells were washed, resuspended in RPMI/0.5% BSA and migration to rhSDF-1 measured by flow cytometry. To block the CXCR4 receptor, replicate cells were incubated with 5 micrograms/ml AMD3100 for 30 minutes prior to the migration assay. Referring now to FIG. 10, the data are the Mean±SEM percentage migration for 3 experiments.

[1] = tested on: CXCR4 on human CD34+ UCB cells; test: CXCR4 surface expression by FACS after pulse exposure, human cells; type: cell-based
Source text: Expression of EP receptors, CXCR4 and Survivin Replicate Lin^neg cell samples from CD45.2 mice were stained for SKL and each of the EP receptors and surface receptor expression on KL and SKL cells determined by FACS. For human EP receptors, UCB was obtained from Wishard Hospital, Indianapolis, Ind. with Institutional Review Board approval. Mononuclear cells were isolated on Ficoll-Paque™ Plus (Amersham Biosciences) and CD34^+ cells positively selected with MACS microbeads (Miltenyi Biotech) (Fukuda and Pelus, 2001). Replicate cells were stained for CD34 and each of the EP receptors and surface expression determined by FACS. […] Cells were stained for SKL (murine cells) and CXCR4, Survivin, and/or active caspase-3, as described above, and analyzed by FACS.
To evaluate CXCR4, Lineage^neg mouse bone marrow cells or CD34^+ UCB were treated on ice with either 1 microMolar dmPGE2 or vehicle control for 2 hours, washed, and then cultured in RPMI-1640/10% HI-FBS at 37° C. for 24 hours, stained for SKL (murine cells) or CD34 (human) and CXCR4 and analyzed by FACS. […] Data are expressed as Mean±SEM % change in mean fluorescence intensity (MFI) of CXCR4 due to treatment with dmPGE2 or vehicle (n=3).

homed SKL cells = test: In vivo cell cycle analysis (BrdU) of homed SKL cells; parameters: species or system mouse; details: BrdU treated recipient mice, 16 hours, vs vehicle pulsed cells
Experimental: For in vitro cell cycle analysis, Lin^neg cells were treated with either 1 microMolar dmPGE2 or vehicle for 2 hours, washed, and cultured in Stem Cell Pro Media (Stem Cell Technologies) with rmSCF (50 ng/ml) (R&D Systems, Minneapolis, Minn.), rhFlt-3 and rhTPO (100 ng/ml each) (Immunex, Seattle, Wash.). After 20 hours, cells were stained for SKL, fixed and permeabilized, and stained with 7AAD (BD Biosciences, San Jose, Calif.). The proportion of SKL cells in S+G2/M phase was determined by measuring DNA content by FACS. […] The proportion of homed (CD45.1^+) SKL cells that were BrdU^+ was determined by FACS in individual mice.
To confirm the effect of dmPGE2 on enhancement of HSPC cell cycle observed in vitro, marrow cells were pulsed with dmPGE2 and injected into congenic mice treated with BrdU post-transplant, and the proportion of donor BrdU^+ SKL cells was determined 16 hours later.
CD45.1 Lineage^neg bone marrow cells were treated with dmPGE2 or vehicle and transplanted into lethally irradiated CD45.2 mice. […] Bone marrow was analyzed 16 hours later and the proportion of CD45.1^+, SKL cells that were BrdU^+ was analyzed by FACS analysis. […] Bone marrow was analyzed 16 hours later and the proportion of CD45.1^+, SKL cells that were BrdU^+ was analyzed by FACS analysis. […]

[2] = tested on: Survivin in murine SKL cells; test: Intracellular Survivin by FACS, murine SKL cells; type: cell-based, mouse; details: vs control; for increase in Survivin protein, murine SKL cells: 24 hours post-pulse
Source text: (§1) All antibodies were purchased from BD Biosciences unless otherwise noted. For detection and sorting of murine KL and SKL cells, streptavidin conjugated with PE-Cy7 (to stain for biotinylated MACS lineage antibodies (Miltenyi Biotech, Auburn, Calif.)), c-kit-APC, Sca-1-PE or APC-Cy7, CD45. 1-PE and CD45.2-FITC were used. UCB CD34^+ cells were detected using anti-human-CD34-APC. For multilineage analysis, APC-Cy7-Mac-1, PE-Cy7-B-220 and APC-CD3 were used. EP receptors were detected with anti EP1, EP2, EP3 and EP4 rabbit IgG (Cayman Chemicals) and secondary staining with FITC-goat-anti-rabbit IgG (Southern Biotech, Birmingham, Ala.). CXCR4 expression was analyzed using streptavidin-PECy7, c-kit-APC, Sca-1-APC-Cy7, and CXCR4-PE. Apoptosis was measured with FITC-Annexin-V. For Survivin and active caspase-3 detection, cells were permeabilized and fixed using the CytoFix/CytoPerm kit (BD) and stained with anti-active-caspase-3-FITC Flow Kit (BD) or Survivin-PE (R&D Systems).
Expression of EP receptors, CXCR4 and Survivin Replicate Lin^neg cell samples from CD45.2 mice were stained for SKL and each of the EP receptors and surface receptor expression on KL and SKL cells determined by FACS. For human EP receptors, UCB was obtained from Wishard Hospital, Indianapolis, Ind. with Institutional Review Board approval. Mononuclear cells were isolated on Ficoll-Paque™ Plus (Amersham Biosciences) and CD34^+ cells positively selected with MACS microbeads (Miltenyi Biotech) (Fukuda and Pelus, 2001). Replicate cells were stained for CD34 and each of the EP receptors and surface expression determined by FACS. To evaluate CXCR4, Survivin and active caspase-3, Lin^neg cells or CD34^+ UCB were treated on ice with either 1 microMolar dmPGE2 or vehicle control for 2 hours, washed, and then cultured in RPMI-1640+10% FBS at 37° C. for 24 hours. Cells were stained for SKL (murine cells) and CXCR4, Survivin, and/or active caspase-3, as described above, and analyzed by FACS. […]

SKL cells = test: Transwell migration of murine SKL cells to rmSDF-1α; type: cell-based, mouse; details: pulsed 2 hours, cultured 16 hours, migration 4 hours; vs vehicle
Experimental: Freshly isolated Lineage^neg mouse bone marrow cells were pulsed with dmPGE2 or vehicle for 2 hours, washed and resuspended in media with 10% HI-FCS and cultured at 37° C. for 16 hours. After incubation, cells were washed, resuspended in RPMI/0.5% BSA and allowed to migrate in transwells to rmSDF-1α for 4 hours. Total cell migration was measured by flow cytometry. Referring now to FIG. 9, total SKL cell migration was higher for cells pulsed with dmPGE2. Data are the Mean±SEM percent migration for 3 experiments. ^†P<0.05 for dmPGE2 treated cells compared to cells treated with vehicle.

[3] = tested on: Survivin in CD34+ UCB cells; test: Intracellular Survivin by FACS, human CD34+ UCB cells; type: cell-based; details: 24 hours post-pulse, vs control
Source text: as §1
Expression of EP receptors, CXCR4 and Survivin Replicate Lin^neg cell samples from CD45.2 mice were stained for SKL and each of the EP receptors and surface receptor expression on KL and SKL cells determined by FACS. […] Replicate cells were stained for CD34 and each of the EP receptors and surface expression determined by FACS. […]

| Compound | migration of human CD34+ cells to SDF-1α (UCB CD34+ cells) | increase in CXCR4 expression on CD34+ UCB ([1]; after PGE2 exposure) [%] | donor (homed) SKL cells in S+G2/M phase (homed SKL cells) [fold] | increase in Survivin protein, murine SKL cells [2] [fold] | total SKL cell migration to rmSDF-1α (SKL cells) | increase in intracellular Survivin, CD34+ UCB cells [3] [fold] | CXCR4 expression on CD34+ UCB cells ([1]; pulse exposure, 24 hours) | Survivin mRNA ([2]; QRT-PCR) |
| --- | --- | --- | --- | --- | --- | --- | --- | --- |
| CCCCC[C@H](O)/C=C/[C@H]1[C@H](O)CC(=O)[C@@H]1C/C=C\CCCC(=O)O [PGE2, Prostaglandin E2] | Increases Migration | 17.3 | ~2 | 1.7 |  |  |  |  |
| CCCCC(C)(C)[C@H](O)/C=C/[C@H]1[C@H](O)CC(=O)[C@@H]1C/C=C\CCCC(=O)O [dmPGE2, 16,16-dimethyl prostaglandin E2] |  |  | ~2 | 1.7 | higher | 2.4 | increased CXCR4 expression | elevated Survivin mRNA |
